From patent US6667413B2, “Uracil compounds and use thereof” (Sumitomo Chemical Company, Limited, priority 1999, dated 2003)

System: common chickweed (Stellaria media)
Test: Test Example 5: foliar treatment, herbicidal activity index
Type: in vivo
Design: key: 0: no or little difference in the degree of germination or growth between the treated and the untreated tested plants at the time of examination; 10: the test plants died complete or their germination or growth was completely inhibited
Details: foliar spray, 10 g/ha, 9 days after application, index 0 to 10
Description: A cylindrical plastic pot having a diameter of 18.5 cm and a depth of 15 cm was filled with soil and then seeded with common chickweed (Stellaria media). These test plants were grown in a greenhouse for 29 days. After then, each of the compound 1-2 and Compound A was formulated into an emulsifiable concentrate according to Formulation Example 2 and then diluted to the prescribed amount with water containing a spreading agent and the dilution was uniformly sprayed over the foliage of the test plants with a sprayer at a rate of 1000 liters per hectare. After the application, the test plants were grown in the greenhouse for 9 days, and the herbicidal activity was examined.

Compound | Herbicidal activity
CCOC(=O)C(C)Oc1ccc(Oc2cc(-n3c(=O)cc(C(F)(F)F)n(C)c3=O)c(F)cc2Cl)cc1 (centres unmarked) [Compound 1-2, ethyl 2-[4-{2-chloro-4-fluoro-5-[3-methyl-2,6-dioxo-4-(trifluoromethyl)-1,2,3,6-tetrahydropyrimidin-1-yl]phenoxy}phenoxy]propionate] | 10
CCOC(=O)C(C)Oc1ccc(Oc2cc(-n3c(=O)cc(C(F)(F)F)n(N)c3=O)c(F)cc2Cl)cc1 (centres unmarked) [Compound A, reference compound] | 5
